From PMC8961646, “Fibroblast Activation Protein Specific Optical Imaging in Non-Small Cell Lung Cancer” (Frontiers in Oncology, 2022)
Non-standard residues stand in square brackets, D forms with d. Residues, ends and D or L forms follow the SMILES beside them. *: point of attachment. 5FAM = O=C1OC2(c3ccc(O)cc3Oc3cc(O)ccc32)c2ccc(C(=O)*)cc21; MethylRed = CN(C)c1ccc(/N=N/c2ccccc2C(=O)*)cc1; AEEA = NCCOCCOCC(=O)O

Tests used:
[1] = biological target: T1, rhPREP (Homo sapiens, UniProt P48147); test: Probe cleavage by recombinant human PREP (fluorescence plate assay, MALDI confirmation); type: biochemical
T1 construct: purchased R&D Systems
T1 sequence (P48147 1-710): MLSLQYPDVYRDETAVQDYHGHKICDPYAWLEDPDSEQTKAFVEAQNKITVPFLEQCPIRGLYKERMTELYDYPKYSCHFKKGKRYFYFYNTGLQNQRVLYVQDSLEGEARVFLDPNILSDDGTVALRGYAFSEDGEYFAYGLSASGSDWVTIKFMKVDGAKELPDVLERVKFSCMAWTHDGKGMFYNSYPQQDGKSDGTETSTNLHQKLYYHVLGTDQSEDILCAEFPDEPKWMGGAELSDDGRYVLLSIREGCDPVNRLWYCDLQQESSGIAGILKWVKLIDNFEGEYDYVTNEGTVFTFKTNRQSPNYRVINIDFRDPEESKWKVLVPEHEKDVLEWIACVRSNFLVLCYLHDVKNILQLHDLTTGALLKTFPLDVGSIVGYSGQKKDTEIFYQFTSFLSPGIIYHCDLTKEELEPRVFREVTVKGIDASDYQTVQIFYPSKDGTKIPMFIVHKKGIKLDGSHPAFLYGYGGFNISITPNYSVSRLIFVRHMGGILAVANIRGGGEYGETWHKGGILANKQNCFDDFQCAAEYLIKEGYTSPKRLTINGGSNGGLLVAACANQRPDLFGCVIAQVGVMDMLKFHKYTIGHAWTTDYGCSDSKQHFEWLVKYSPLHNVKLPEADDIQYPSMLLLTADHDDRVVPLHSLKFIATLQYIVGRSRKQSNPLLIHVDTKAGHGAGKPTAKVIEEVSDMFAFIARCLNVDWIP

[2] = system: FAP+ CAFs from NSCLC patient samples; test: Probe cleavage on cancer associated fibroblasts (CAFs); type: cell-based, human; conditions: FAP3 5 µM, confluent CAF monolayer in 96 well plate, DPBS, read 480/530 nm for one hour, n=3 run in triplicate
Protocol: CAFs were isolated from NSCLC patient samples as previously described ([28]). Briefly, tissue samples were minced with forceps and incubated for an hour in prewarmed RPMI media (Gibco) containing collagenase IV [2 mg/ml] (Sigma) and DNase [0.2 mg/ml] (Sigma). Samples were spun at 350 g for 5 minutes and red blood cells were lysed from samples using RBC lysis buffer (BioLegend) in 10 ml for 10 minutes. Following a further spin at 350 g for 5 minutes, cells were seeded in culture flasks in DMEM containing 10% FCS, 1% Penicillin-Streptomycin, 1% L-Glutamine and 10% Insulin Transferrin Selenium (ITS). 24 hours after seeding, non-adherent cells were washed from the flasks. Cells were maintained by standard cell culture methods and by passage 2, the predominant cell type was CAFs, assessed by flow cytometry markers and morphology. CAFs between passage 4-9 were used to assess FAP probes and confirmed to be FAP^hi by flow cytometry.
CAFs were seeded into 96 well plates in a 100 µl media (complete DMEM as described above) at a density of 1x10^5 cells/ml to form a confluent monolayer within 24 hours. […] Immediately after adding imaging probes, the plate was transferred to the prewarmed spectrophotometer as above and read at 480/530 nm for one hour.

[3] = biological target: T2, rhFAP (Homo sapiens, UniProt Q12884); test: Probe cleavage by recombinant human FAP (fluorescence plate assay, MALDI confirmation); type: biochemical
T2 construct: purchased R&D Systems
T2 sequence (Q12884 26-760 limits assumed): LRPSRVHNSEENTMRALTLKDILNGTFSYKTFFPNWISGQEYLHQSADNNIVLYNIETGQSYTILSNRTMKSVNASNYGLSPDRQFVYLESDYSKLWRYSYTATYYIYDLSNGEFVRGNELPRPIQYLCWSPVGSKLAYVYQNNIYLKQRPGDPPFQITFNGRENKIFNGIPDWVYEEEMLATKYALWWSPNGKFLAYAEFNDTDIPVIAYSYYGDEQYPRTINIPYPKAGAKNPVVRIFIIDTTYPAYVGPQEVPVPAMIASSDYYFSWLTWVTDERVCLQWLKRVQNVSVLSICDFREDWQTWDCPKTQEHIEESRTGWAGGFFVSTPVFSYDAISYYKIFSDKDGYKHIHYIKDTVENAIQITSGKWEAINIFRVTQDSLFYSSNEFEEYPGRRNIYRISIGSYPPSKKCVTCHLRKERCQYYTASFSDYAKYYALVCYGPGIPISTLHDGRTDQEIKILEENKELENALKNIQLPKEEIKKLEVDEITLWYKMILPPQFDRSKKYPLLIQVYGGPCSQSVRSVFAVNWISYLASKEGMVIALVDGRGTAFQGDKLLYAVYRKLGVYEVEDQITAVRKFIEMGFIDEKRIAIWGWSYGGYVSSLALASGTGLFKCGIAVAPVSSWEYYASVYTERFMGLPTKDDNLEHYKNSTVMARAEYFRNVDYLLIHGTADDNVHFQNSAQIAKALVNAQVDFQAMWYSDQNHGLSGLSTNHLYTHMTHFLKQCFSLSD

Question: For `CC(C)[C@H](NC(=O)[C@@H](N)CCCCNC(=O)c1ccccc1/N=N/c1ccc(N(C)C)cc1)C(=O)N[C@H](CO)C(=O)N1CCC[C@H]1C(=O)N[C@@H](CC(N)=O)C(=O)N[C@@H](CCC(N)=O)C(=O)NCC(=O)N[C@@H](CCCCNC(=O)c1ccc2c(c1)C(=O)OC21c2ccc(O)cc2Oc2cc(O)ccc21)C(=O)NCCOCCOCC(=O)N[C@H](CCCCN)C(=O)NCCOCCOCC(=O)N[C@H](CCCCN)C(=O)NCCOCCOCC(=O)N[C@H](CCCCN)C(N)=O` [FAP3] (H-K(MethylRed)V[dS]PNQGK(5FAM)[AEEA][dK][AEEA][dK][AEEA][dK]-NH2), which “Cleavage by rhPREP by MALDI” value ([1]; MALDI-TOF read-out) is on record?
Answer: Its value is “no cleavage”.

Question: What about the “Cleavage by rhPREP (fluorescence signal)” value ([1]; probe 5 µM, rhPREP 0.1 µg/ml, TRIS buffer pH 7.5, read 480/530 nm, n=3 run in triplicate) of the same compound?
Answer: Its value is “no rhPREP cleavage”.

Question: What about the “Cleavage by FAP+ CAFs (fluorescence)” value [2] of the same compound?
Answer: The value was “cleaved”.

Question: What about the “Cleavage of FAP3 by rhFAP confirmed by MALDI” value ([3]; MALDI-TOF read-out, cleavage post proline) of the same compound?
Answer: Its value is “confirming the cleavage”.

Question: And the “FAP specificity (over PREP)” value ([3]; probe 5 µM, rhFAP compared with rhPREP, each 0.1 µg/ml)?
Answer: The value was “demonstrated FAP specificity”.
